In one experiment the test system is IL-8 mRNA. As to the kind of experiment: RT-qPCR quantification of IL-8 mRNA in TNF-α-induced IB3-1 cells. The class given is cell-based, human. Particulars: Homo sapiens, IB3-1, 24 h, TNF-α-induced IB3-1 cells, RT-qPCR, na = not active at the used concentrations. The protocol: Monolayers of 60% confluent IB3-1 cells were seeded in 6- or 12-well plates in LHC-8 medium in the presence of 5% FBS. After 24 h, pure derivatives were added, 5 h before stimulation with TNF-α 80 ng/ml (ORF Genetics, Kopavogur, Iceland), and incubated for a further 24 h. Total RNA was extracted using TRIzol Reagent (Sigma-Aldrich, St. Louis, MO) following the manufacturer's instructions. Reverse transcription (RT) was performed using Reverse Transcription System kit (Promega, Madison, WI): 1 μg of total RNA was reverse transcribed in the presence of 5 mM MgCl2, 1X reverse transcription buffer (10 mM Tris-HCl, 50 mM KCl, and 0.1% Triton X-100), 1 mM each dNTPs, 20 U recombinant Rnasin Ribonuclease Inhibitor, 15 U AMV Reverse Transcriptase, and 0.5 μg oligo(dT)15 primers in a total volume of 20 μl for 10 min at 70°C and 60 min at 42°C. The resulting cDNA was quantified by relative quantitative real-time PCR (real-time qPCR). For real-time qPCR, 1 μl of cDNA was used for each SYBR Green reaction to quantify the relative expression of IL-8. Each 25 μl of total reaction volume contained 1 μl of cDNA, 10 pmol of primers, 1 iQTM SYBR Green Supermix (Bio-Rad Laboratories Inc., Hercules, CA). Real-time PCRs were performed for a total of 40 cycles (denaturation, 95°C for 10 s; annealing, 68°C for 30 s for IL-8, 65°C for 30 s for IL-6; elongation, 72°C for 60 s) using an iCycler IQ5 (Bio-Rad Laboratories Inc., Hercules, CA). Primer sequences were as follows: IL-8 forward: 5′-GTGCAGTTTTGCCAAGGAGT-3′ and IL-8 reverse: 5′-TTATGAATTCTCAGCCCTCTTCAAAAACTTCTC-3′. The relative proportions of each amplified template were determined utilizing the threshold cycle (CT) value for each performed PCR. The DDCt method was used to compare gene expression data. Each sample was quantified in duplicate. Changes in mRNA expression level were calculated following normalization with the GAPDH calibrator gene (housekeeping gene) and expressed as fold change over untreated samples [24]. Duplicates of negative controls (no template cDNA) were also run with every experimental plate to assess specificity and indicate potential contamination.
With the aim to study the effective anti-inflammatory properties of these new psoralen derivatives, we decided to further characterize the TMA derivatives for their potential activities on the expression of IL-8 gene, known to be involved in the lung inflammatory process in CF. […] More specifically, we were first interested in identifying compounds with low antiproliferative activity, but effective in downmodulating inflammatory gene expression without achieving a full suppression of these genes. We therefore employed IB3-1 cystic fibrosis cells, incubated for 5 h with two concentrations (1 μM and 10 μM) of selected compounds, and then treated with TNF-α ([…]). In the IB3-1 cystic fibrosis cellular model, NF-κB-dependent genes, including the gene encoding for the proinflammatory protein IL-8, generally are activated following infection with P. aeruginosa or treatment with TNF-α or IL-1β [26, 28, 31]. This feature is very important in the pathophysiology of CF, since several clinical complications are caused by exacerbation of this inflammatory response. After 1 day of incubation, cellular RNA was isolated for RT-qPCR analysis. All the TMA analogues found to be active in inhibiting NF-κB/DNA interactions were analyzed for their effects on inhibition of TNF-α-induced accumulation of IL-8 mRNA.

The next experiment concerns IL-8. The experiment in a line: Bioplex analysis of IL-8 release in TNF-α-induced IB3-1 cells. The format is cell-based, human. The conditions noted are these: 1 μM, compared to untreated TNF-α-stimulated IB3-1 cells, 5 h pretreatment then TNF-α 24 h. On the procedure: The Bioplex cytokine assay is designed for the multiplexed quantitative measurement of multiple cytokines in a single well using as little as 50 μl of sample. In our experiments, the premixed multiplex beads (27-plex) of the Bioplex human cytokines were used. 50 μl of cytokine standards or samples (supernatants recovered from treated cells and diluted to 2 μg/μl) were incubated with 50 μl of anticytokine conjugated beads in 96-well filter plates for 30 min at room temperature with shaking. Plates were washed by vacuum filtration three times with 100 μl of Bioplex wash buffer, 25 μl of diluted detection antibody were added, and plates were incubated for 30 min at room temperature with shaking. After three filter washes, 50 μl of streptavidin-phycoerythrin were added, and the plates were incubated for 10 min at room temperature with shaking. Finally, plates were washed by vacuum filtration three times, beads were suspended in Bioplex assay buffer, and samples were analyzed on a Bio-Rad 96-well plate reader using the Bioplex Suspension Array System and Bioplex Manager software (Bio-Rad Laboratories Inc., Hercules, CA).
In order to verify the effects on the secretion of IL-8 by IB3-1 cells, Luminex technology was employed to detect and quantify proteins secreted into the medium. […]

`Cc1oc2c(C)cc3c(C)cc(=O)oc3c2c1C` [Compound 1] returned an inhibition at 1 µM with IL-8 mRNA (1 μM compound) of 57%. This compound showed an inhibition at 10 µM in the experiment with IL-8 mRNA (10 μM compound) of 56%. The “Reduction of IL-8 secretion” value in the experiment on IL-8 was “about 50%”.

Values taken from publication PMC5635289, “Differential Effects of Angelicin Analogues on NF-κB Activity and IL-8 Gene Expression in Cystic Fibrosis IB3-1 Cells” (Mediators of Inflammation, 2017).
